Measurements published in patent US20260184710A1, “CASITAS B-LINEAGE LYMPHOMA PROTOONCOGENE B (CBL-B) DEGRADING COMPOUNDS AND ASSOCIATED METHODS OF USE” (Arvinas Operations, Inc., priority 2022, published 2026).

Legend:
Cbl-b [1] = biological target: T1, Cbl-b (Homo sapiens, UniProt Q13191); assay: Cbl-b Degradation Method A (FACS, anti-Cbl-b antibody staining); assay type: cell-based; conditions: Cbl-b-HiBit KI Jurkat Cells, incubated at least 20 hours; for DC50: half maximal degradation, read-out: Cbl-b Degredation Method A IC50; for Dmax: Jurkat, maximum degradation observed, read-out: Cbl-b Degredation Method A Dmax (%)
T1 construct: Cbl-b-HiBit KI Jurkat Cells were purchased from Promega; host or cells: Cbl-b-HiBiT knock-in Jurkat cells
Outline: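 Readout is flow cytometry of fixed, permeabilized cells immunostained for Cbl-b (primary 1:200, AF488 secondary). Cells were Cbl-b-HiBit knock-in Jurkat, exposed to compound ≥20 h at 37 °C; half-maximal degradation concentration (DC50) and maximal degradation (Dmax) calculated relative to control.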

Cbl-b [2] = biological target: T1, Cbl-b; assay: Cbl-b Degradation Method B (Nano-Glo HiBiT lytic detection); assay type: cell-based; conditions: Cbl-b-HiBit KI Jurkat Cells, incubated at least 6-24 hours; for DC50: half maximal degradation, read-out: Cbl-b Degredation Method B IC50; for Cbl-b Degredation Method B Dmax (%): maximum degradation observed
Outline: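 An 11-point, 3-fold compound dilution was applied for 6-24 hours to Jurkat cells carrying HiBiT-tagged endogenous Cbl-b. Lytic HiBiT luminescence quantified residual protein. Outputs are DC50 and Dmax relative to DMSO control.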

T1 sequence (Q13191 whole entry): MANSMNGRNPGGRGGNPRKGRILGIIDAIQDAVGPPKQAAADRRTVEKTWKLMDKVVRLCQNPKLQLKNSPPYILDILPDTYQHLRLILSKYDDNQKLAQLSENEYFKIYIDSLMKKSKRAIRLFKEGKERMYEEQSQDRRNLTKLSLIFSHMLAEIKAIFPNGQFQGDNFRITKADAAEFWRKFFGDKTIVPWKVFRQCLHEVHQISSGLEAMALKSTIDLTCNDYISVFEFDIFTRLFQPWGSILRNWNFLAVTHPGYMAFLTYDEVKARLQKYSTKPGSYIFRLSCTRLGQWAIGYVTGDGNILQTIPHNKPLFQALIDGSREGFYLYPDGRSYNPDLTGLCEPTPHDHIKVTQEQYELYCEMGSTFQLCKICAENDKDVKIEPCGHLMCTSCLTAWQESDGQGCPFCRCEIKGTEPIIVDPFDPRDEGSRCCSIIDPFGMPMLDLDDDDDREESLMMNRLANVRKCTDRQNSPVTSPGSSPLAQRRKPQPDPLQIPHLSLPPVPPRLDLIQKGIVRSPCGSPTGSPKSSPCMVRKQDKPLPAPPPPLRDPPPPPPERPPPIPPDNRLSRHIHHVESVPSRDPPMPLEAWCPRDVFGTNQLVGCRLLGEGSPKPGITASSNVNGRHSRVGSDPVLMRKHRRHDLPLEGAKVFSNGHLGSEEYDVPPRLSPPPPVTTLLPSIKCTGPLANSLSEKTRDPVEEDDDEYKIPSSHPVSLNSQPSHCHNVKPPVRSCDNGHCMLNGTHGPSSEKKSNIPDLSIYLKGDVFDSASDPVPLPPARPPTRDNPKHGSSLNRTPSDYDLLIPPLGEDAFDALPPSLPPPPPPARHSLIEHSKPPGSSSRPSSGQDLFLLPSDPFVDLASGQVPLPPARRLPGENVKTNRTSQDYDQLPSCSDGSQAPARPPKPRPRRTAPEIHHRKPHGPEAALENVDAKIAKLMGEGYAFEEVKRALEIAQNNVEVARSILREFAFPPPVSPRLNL

Row | Compound | DC50 (Cbl-b [1]) [nM] | Dmax (Cbl-b [1]) [%] | DC50 (Cbl-b [2]) [nM] | Cbl-b Degredation Method B Dmax (%) (Cbl-b [2])
1 | CC(C)n1c(=O)n(C2CCC(=O)NC2=O)c2cccc(N3CCC(O[C@H]4CC[C@H](CN5CCN(Cc6cc7c(c(C(F)(F)F)c6)CN(c6cccc([C@]8(Cc9nncn9C)C[C@@H](C#N)C8)c6)C7=O)CC[C@H]5C)CC4)CC3)c21 (stereo partly drawn) [Example 323, (1r,3r)-3-[3-(6-{[(5R)-5-methyl-4-{[(1r,4r)-4-({1-[1-(2,6-dioxopiperidin-3-yl)-2-oxo-3-(propan-2-yl)-2,3-dihydro-1H-1,3-benzodiazol-4-yl]piperidin-4-yl}oxy)cyclohexyl]methyl}-1,4-diazepan-1-yl]methyl}-1-oxo-4-(trifluoromethyl)-2,3-dihydro-1H-isoindol-2-yl)phenyl]-3-[(4-methyl-4H-1,2,4-triazol-3-yl)methyl]cyclobutane-1-carbonitrile] | 5 to 50 | 35 to 70 | < 5 | C (C ≤ 35)
2 | Cn1cnnc1C[C@]1(c2cccc(N3Cc4c(cc(CN5CCN(C[C@H]6CC[C@H](OC7CCN(c8cccc9c8n(C(F)F)c(=O)n9C8CCC(=O)NC8=O)CC7)CC6)CC5(C)C)cc4C(F)(F)F)C3=O)c2)C[C@H](C#N)C1 (some centres unmarked) [Example 324, (1r,3r)-3-(3-{6-[(2,2-dimethyl-4-{[(1r,4r)-4-({1-[3-(difluoromethyl)-1-(2,6-dioxopiperidin-3-yl)-2-oxo-2,3-dihydro-1H-1,3-benzodiazol-4-yl]piperidin-4-yl}oxy)cyclohexyl]methyl}piperazin-1-yl)methyl]-1-oxo-4-(trifluoromethyl)-2,3-dihydro-1H-isoindol-2-yl}phenyl)-3-[(4-methyl-4H-1,2,4-triazol-3-yl)methyl]cyclobutane-1-carbonitrile] | 5 to 50 | 35 to 70 | < 5 | C (C ≤ 35)
3 | Cn1cnnc1C[C@]1(c2cccc(N3Cc4c(cc(CN5CCN(C[C@H]6CC[C@H](OC7CCN(c8cccc9c8nc(OC(F)F)n9C8CCC(=O)NC8=O)CC7)CC6)CC5(C)C)cc4C(F)(F)F)C3=O)c2)C[C@H](C#N)C1 (some centres unmarked) [Example 325, (1r,3r)-3-(3-{6-[(2,2-dimethyl-4-{[(1r,4r)-4-({1-[2-(difluoromethoxy)-1-(2,6-dioxopiperidin-3-yl)-1H-1,3-benzodiazol-4-yl]piperidin-4-yl}oxy)cyclohexyl]methyl}piperazin-1-yl)methyl]-1-oxo-4-(trifluoromethyl)-2,3-dihydro-1H-isoindol-2-yl}phenyl)-3-[(4-methyl-4H-1,2,4-triazol-3-yl)methyl]cyclobutane-1-carbonitrile] | 50 to 500 | 35 to 70 | 5 to 50 | C (C ≤ 35)
4 | CC(C)n1c(=O)n(C2CCC(=O)NC2=O)c2cccc(N3CCC(O[C@H]4CC[C@H](CN5CCN(Cc6cc7c(c(C(F)(F)F)c6)CN(c6cccc([C@]8(Cc9nncn9C)C[C@H](C#N)C8)c6)C7=O)CC[C@@H]5C)CC4)CC3)c21 (stereo partly drawn) [Example 326, (1r,3r)-3-[3-(6-{[(5S)-5-methyl-4-{[(1r,4r)-4-({1-[1-(2,6-dioxopiperidin-3-yl)-2-oxo-3-(propan-2-yl)-2,3-dihydro-1H-1,3-benzodiazol-4-yl]piperidin-4-yl}oxy)cyclohexyl]methyl}-1,4-diazepan-1-yl]methyl}-1-oxo-4-(trifluoromethyl)-2,3-dihydro-1H-isoindol-2-yl)phenyl]-3-[(4-methyl-4H-1,2,4-triazol-3-yl)methyl]cyclobutane-1-carbonitrile] | 50 to 500 | 35 to 70 | < 5 | C (C ≤ 35)
5 | CC(C)n1c(=O)n(C2CCC(=O)NC2=O)c2cccc(N3CCC(O[C@H]4CC[C@H](CN5CC6(CN(Cc7cc8c(c(C(F)(F)F)c7)CN(c7cccc([C@]9(Cc%10nncn%10C)C[C@@H](C#N)C9)c7)C8=O)C6)C5)CC4)CC3)c21 (some centres unmarked) [Example 327, (1r,3r)-3-[(4-methyl-4H-1,2,4-triazol-3-yl)methyl]-3-(3-{1-oxo-6-[(6-{[(1r,4r)-4-({1-[1-(2,6-dioxopiperidin-3-yl)-2-oxo-3-(propan-2-yl)-2,3-dihydro-1H-1,3-benzodiazol-4-yl]piperidin-4-yl}oxy)cyclohexyl]methyl}-2,6-diazaspiro[3.3]heptan-2-yl)methyl]-4-(trifluoromethyl)-2,3-dihydro-1H-isoindol-2-yl}phenyl)cyclobutane-1-carbonitrile] | 5 to 50 | 35 to 70 | < 5 | C (C ≤ 35)
